Measurements taken from patent publication US7521395B2, “Synergistically acting herbicidal mixtures” (BASF Aktiengesellschaft, priority 2002, dated 2009).

Columns and labels:
Assay in all cases: Herbicidal action, post-emergence treatment, field trial
Assay type in all cases: in vivo
Conditions in all cases: application rate 1250 g/ha ai, scale 0 = no damage, 100 = complete destruction
Anoda cristata = tested on: Anoda cristata
Excerpt: (§1) The mixtures according to the invention were applied pre- or post-emergence (foliar treatment). The herbicidal compounds of component B and of component C were applied in the formulation in which they are present as commercially available product.
(§2) The herbicidally active compounds of components A), B) and C) were applied in succession or jointly, in the latter case in some cases as a tank mix and in some cases as a readymix, in the form of emulsions, aqueous solutions or suspensions, the vehicle being water (300-400 l/ha). In the case of the field trials, application was effected with the aid of a mobile plot sprayer.
(§3) The test period extended over 3 to 8 weeks, and the stands were also observed at later points in time.
(§4) Damage by the herbicidal compositions was evaluated with reference to a scale of 0% to 100% in comparison with untreated control plots. 0 means no damage and 100 means complete destruction of the plants.
(§5) In these examples, the value E at which only an additive effect of the individual active ingredients is to be expected was calculated by the method of S. R. Colby (Calculating synergistic and antagonistic responses of herbicide combinations, Weeds 15, 20 pp (1967)).
(§6) This was done using the formula
(§7) [formula] where • X=Percentage of the herbicidal action of component X) at an application rate of x; • Y=Percentage of the herbicidal action of component Y) at an application rate of y; • E=expected herbicidal action of component X)+Y) at rates of application x+y (in %).
(§8) If the value observed exceeds the value E calculated in accordance with Colby's formula, then synergism is present.

Sorghum halepense = tested on: Sorghum halepense
Excerpt: as §1, §2, §3, §4, §5, §6, §7, §8

Tagetes minuta = tested on: Tagetes minuta
Excerpt: as §1, §2, §3, §4, §5, §6, §7, §8

For `CCNc1nc(Cl)nc(NC(C)C)n1` [atrazine], which “Anoda cristata Damage [%]” value (Anoda cristata) is on record?
The value was 70%.

What about the “Sorghum halepense Damage [%]” value (Sorghum halepense) of the same compound?
The value was 10%.

And the “Tagetes minuta Damage [%]” value (Tagetes minuta)?
Its value is 50%.
